Source: US20260284087A1, “USES OF CANNABIDIOL (CBD) AND ADVANCED METABOLIC SYNDROME” (THE REGENTS OF THE UNIVERSITY OF CALIFORNIA, priority 2022, published 2026)

Key:
[1] = system: Otsuka Long-Evans Tokushima Fatty (OLETF) rats; test: Plasma metabolomics in CBD-treated OLETF rats; format: in vivo, rat; details: OLETF vs. CBD, 200 mg CBD/kg oral gavage for 5 weeks, p<0.0001
Text: FIGS. 2A-2C CBD increases BAIBA. A) Metabolomic map showing metabolites with p<0.05 after Student's t-test, representing mean plasma peak intensity fold-changes between groups in metabolites with q<0.2, for OLETF vs. CBD, B) top 5 metabolites, associated pathway and change directionality listed by lowest p-value for OLETF vs. CBD and C) raw mean peak area of BAIBA. *p<0.05 compared to LETO and †p<0.05 compared to OLETF by ANOVA with Tukey's HSD or student's t-test.
(§1) To assess the effects of a CBD on BAT loss associated with progressive MetS, a cohort of 15-week-old Otsuka Long-Evans Tokushima Fatty (OLETF) rats were administered 200 mg CBD/kg by oral gavage for 5 weeks. Animals were fed ad libitum and monitored in metabolic cages alongside vehicle-treated OLETF and lean strain control Long-Evans Tokushima Otsuka (LETO) rats. Brown adipose tissue content was estimated from 2-dimensional images to quantify surface area. The Otsuka Long-Evans Tokushima Fatty (OLETF) rat is a monogenic model of diet-induced obesity accelerated by a mutation in the CCK receptor. […] At >40 weeks of age, OLETF rats suffer from severe metabolic dysfunction and therefore serve as a model of aged, severe MetS.

[2] = system: Otsuka Long-Evans Tokushima Fatty (OLETF) rats; test: CBD effect on brown adipose tissue loss in OLETF rats with progressive MetS; format: in vivo, rat; details: 15-week-old OLETF rats, 200 mg CBD/kg oral gavage for 5 weeks; p<0.05; BAT estimated from 2-dimensional images (surface area)
Description: as §1

C=C(C)[C@@H]1CCC(C)=C[C@H]1c1c(O)cc(CCCCC)cc1O [CBD, Cannabidiol]
increase in ß-aminoisobutyric acid (BAIBA) [1]: 2.1 fold
BAT masses preserved (of BAT lost in OLETF control) [2]: 55%
